Test results reported in publication PMC11249646, “Small-Molecule Disruptors of the Interaction between Calcium- and Integrin-Binding Protein 1 and Integrin αIIbβ3 as Novel Antiplatelet Agents” (ACS Pharmacology & Translational Science, 2024).
Where two headings read alike, the source gives them in different places.

Assays:
[1] = target: T1, CIB1 and αIIb interaction (CIB1-GST : F-αIIb peptide) (Homo sapiens, UniProt Q99828); experiment: FP assay, 1536-well qHTS format (primary and confirmatory screen); type: binding; details: for Curve Class (confirmatory screen) / CONFIRMATORY SCREEN Curve Class: qHTS curve class
T1 construct: made in house; host or cells: BL-21 plus RIL cells (E. coli)
T1 sequence (Q99828 1-191): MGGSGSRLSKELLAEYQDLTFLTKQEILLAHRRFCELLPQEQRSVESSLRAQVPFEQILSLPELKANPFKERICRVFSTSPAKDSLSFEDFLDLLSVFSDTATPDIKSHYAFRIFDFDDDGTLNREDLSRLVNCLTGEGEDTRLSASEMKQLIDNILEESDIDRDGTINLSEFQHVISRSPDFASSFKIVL

[2] = target: T2, GST-CIB1 : F-scrambled peptide (Homo sapiens, UniProt Q99828); experiment: FP scrambled-peptide counter screen, 1536-well format; type: binding; details: for Curve Class (counterscreen) / COUNTERSCREEN Curve Class: qHTS curve class; for IC50: read-out: IC50 [μM] (counterscreen)
T2 construct: made in house; host or cells: BL-21 plus RIL cells (E. coli)
T2 sequence (Q99828 1-191): T1 sequence (Q99828 1-191)

[3] = confirmatory screen, negative sign = inhibitory curve
[4] = qHTS primary screen hits, Table S2, negative = inhibition
[5] = qHTS primary screen hits, Table S2, negative sign = inhibitory curve, several classes where COUNT > 1
[6] = qHTS primary screen hits, Table S2, read-out: IC50
[7] = counterscreen, negative sign = inhibitory curve
[8] = confirmatory screen, read-out: IC50 [μM] (confirmatory screen)
[9] = Table S3, confirmatory screen, YES/NO call
[10] = Table S3, confirmatory screen, a negative sign marks inhibitory curves
[11] = Table S3, confirmatory screen, negative = inhibition
[12] = Table S3, confirmatory screen, read-out: IC50 [μM] (confirmatory screen)
[13] = Table S3, counterscreen, a negative sign marks inhibitory curves
[14] = Table S3, counterscreen, negative = inhibition
[15] = qHTS FP screen hits, Table S2, negative = inhibition
[16] = qHTS FP screen hits, Table S2, one class per curve where COUNT > 1, negative sign = inhibitory curve
[17] = qHTS FP screen hits, Table S2, read-out: IC50
[18] = scrambled-peptide counterscreen

| Compound | Efficacy (%) (confirmatory screen) ([1]; confirmatory screen) | Confirm? (confirmatory screen) ([1]; confirmatory screen, YES/NO) | Curve Class (confirmatory screen) [1, 3] | Efficacy (%) [1, 4] [%] | Curve Class [1, 5] | IC50 [1, 6] [µM] | Efficacy (%) (counterscreen) ([2]; counterscreen) | Curve Class (counterscreen) [2, 7] | IC50 ([2]; counterscreen) [µM] | Curve Class (confirmatory screen) [1, 10] | Efficacy (%) (confirmatory screen) [1, 11] | Curve Class (counterscreen) [2, 13] | Efficacy (%) (counterscreen) [2, 14] | Efficacy (%) [1, 15] [%] | IC50 [1, 17] [µM] | further results |
| --- | --- | --- | --- | --- | --- | --- | --- | --- | --- | --- | --- | --- | --- | --- | --- | --- |
| CCNC(=O)c1ccc(-c2ccc3ncnc(N4CCOCC4)c3c2)o1.O=C(O)C(F)(F)F [NCGC00238377-01] | -45 | YES | -1.4 | -23 | -2.4 | 28.2 | -38 | -2.2 | 44.7 | – | – | – | – | – | – | – |
| CCN1CCN(c2cccc(Nc3nn4c(=O)c5ccccc5nc4s3)c2)CC1.Cl [NCGC00187806-01] | -38 | YES | -2.4 | -24 | -2.4 | 35.5 | -58 | -3 | 89.1 | – | – | – | – | – | – | IC50 [1, 8]: 44.7 µM |
| COc1c(O)cccc1[C@H](O)C1CCN(CCc2ccc(F)cc2)CC1 [NCGC00168042-01] | – | – | – | – | – | – | – | – | – | -2.4 | -89 | -2.1 | -83 | – | – | Confirm? (confirmatory screen) [1, 9]: YES; IC50 [1, 12]: 50.1 µM; IC50 ([2]; Table S3, counterscreen): 50.1 µM |
| C[C@@H](NCc1cc2ccccc2[nH]1)c1cccc2ccccc12.Cl [NCGC00344505-01] | – | – | – | -31 | -2.4 | 21.5 | – | – | – | 4 | -25 | 4 | -21 | – | – | – |
| CCC(C)Cn1c(O)cc2nn(-c3nc4ccccc4s3)c(=O)c-2c1C.O=C(O)C(F)(F)F (centres unmarked) [NCGC00386995-01] | – | – | – | – | – | – | – | – | – | -1.4 | -40 | -1.2 | -51 | – | – | Confirm? (confirmatory screen) [1, 9]: YES; IC50 [1, 12]: 35.5 µM; IC50 ([2]; Table S3, counterscreen): 11.2 µM |
| CNc1nc2c(s1)C(c1c(F)cccc1Cl)CC(=O)N2.O=C(O)C(F)(F)F (centres unmarked) [NCGC00488265-02] | – | – | – | -65 | -2.2 | 56.2 | – | – | – | 4 | -12 | 4 | 0 | – | – | – |
| Nc1ccc(O)c([N+](=O)[O-])c1 [NCGC00091261-03] | -127 | YES | -1.1 | – | – | – | -105 | -2.1 | 63.1 | – | – | – | – | -59 | 113 | IC50 [1, 8]: 50.1 µM; Curve Class [1, 16]: -2.2 |
| O=C(N/N=C1\C(=O)N(CCc2ccccc2)c2ccccc21)c1cccnc1 [NCGC00420788-01] | – | – | – | -28 | -1.4 | 22.4 | – | – | – | -2.2 | -58 | -2.2 | -65 | – | – | Confirm? (confirmatory screen) [1, 9]: YES; IC50 [1, 12]: 39.8 µM; IC50 ([2]; Table S3, counterscreen): 44.7 µM |
| O=C(Cc1ccc(Cl)c(Cl)c1)Nc1ccc(S(=O)(=O)Nc2cnccn2)cc1.O=C(O)C(F)(F)F [NCGC00248365-02] | -30 | YES | -1.4 | – | – | – | -24 | 4 | – | – | – | – | – | -26 | 17.8 | Confirm? (counterscreen) ([2]; counterscreen, YES/NO): YES |
| CC1=C(C(=O)Nc2cccc(C(=O)O)c2)C(c2ccccc2Cl)N=C(Nc2nc3ccccc3o2)N1.O=C(O)C(F)(F)F (centres unmarked) [NCGC00351024-01] | -26 | YES | -2.4 | – | – | – | 141 | – | 79.4 | – | – | – | – | -37 | 39.8 | Curve Class [1, 16]: -2.2; Confirm? (counterscreen) ([2]; counterscreen, YES/NO): YES |
| CCC(=O)NC(c1cccs1)c1cc(Br)c2cccnc2c1O (centres unmarked) [NCGC00183689-01] | -56 | YES | -2.4 | – | – | – | -21 | 4 | – | – | – | – | – | -54 | 28.2 | IC50 [1, 8]: 25.1 µM; Curve Class [1, 16]: -1.2; Confirm? (counterscreen) ([2]; counterscreen, YES/NO): YES |
| C=C1C(=O)[C@@]23C(CC[C@@H]1[C@H]2O)[C@@]12CO[C@]3(O)[C@@H](O)[C@@H]1C(C)(C)CC[C@@H]2O (some centres unmarked) [NCGC00346595-02] | -89 | YES | -1.1 | – | – | – | -60 | -1.2 | 15.8 | – | – | – | – | – | – | IC50 [1, 8]: 25.1 µM |
| COc1ccc(CC(NC(C)=O)C(=O)O)cc1 (centres unmarked) [NCGC00384987-01] | – | – | – | – | – | – | – | – | – | -2.2 | -65 | -2.1 | -105 | -58 | 56.2 | Confirm? (confirmatory screen) [1, 9]: YES; IC50 [1, 12]: 50.1 µM; Curve Class [1, 16]: -2.2; IC50 ([2]; Table S3, counterscreen): 79.4 µM |
| CC(=O)NC(Cc1c[nH]c2ccccc(=O)c12)C(=O)O (centres unmarked) [NCGC00381382-01] | -74 | YES | -2.2 | – | – | – | -85 | -2.2 | 89.1 | – | – | – | – | -50 | 50.1 | IC50 [1, 8]: 44.7 µM; Curve Class [1, 16]: -2.2 |
| Nc1nc2c(s1)C(c1ccccc1)CC(=O)N2 (centres unmarked) [NCGC00422009-03] | – | – | – | -83 | -2.2 | 79.4 | – | – | – | 4 | -35 | -2.4 | -45 | – | – | Confirm? (counterscreen) ([2]; Table S3, counterscreen, YES/NO call): YES; IC50 ([2]; Table S3, counterscreen): 39.8 µM |
| O=S(=O)(c1ccc2nc(Cl)c(Cl)nc2c1)N1CCN(S(=O)(=O)c2c(F)cccc2F)CC1 [NCGC00182436-01] | – | – | – | -32 | -1.4 | 2.2 | – | – | – | – | – | – | – | – | – | CONFIRMATORY SCREEN Confirm? ([1]; confirmatory screen, YES/NO call): YES; CONFIRMATORY SCREEN Curve Class [1, 3]: -1.4; CONFIRMATORY SCREEN Efficacy (%) ([1]; confirmatory screen, negative = inhibition): -43%; IC50 ([1]; confirmatory screen, read-out: CONFIRMATORY SCREEN IC50): 5.6 µM; COUNTERSCREEN Efficacy (%) [2, 18]: -18%; COUNTERSCREEN Confirm? ([2]; scrambled-peptide counterscreen, YES/NO call): YES; COUNTERSCREEN Curve Class [2, 18]: 4 |
| CN1CCN(c2ccc(-c3cc(O)c4ncccc4c3)cc2)CC1.O=C(O)C(F)(F)F [NCGC00183803-01] | – | – | – | – | – | – | – | – | – | – | – | – | – | -51 | 39.8 | CONFIRMATORY SCREEN Efficacy (%) ([1]; confirmatory screen): -13%; CONFIRMATORY SCREEN Curve Class ([1]; confirmatory screen): 4; COUNTERSCREEN Efficacy (%) ([2]; counterscreen): -12%; COUNTERSCREEN Curve Class ([2]; counterscreen): 4 |
